These results are taken from patent publication US4694006A, “Acyl- or acyloxymethyl-allopurinol prodrugs” (priority 1983, dated 1987).

Data set [1] can be described thus: In-vitro cleavage of allopurinol derivatives to allopurinol in pH 7.4 buffer at 37° C. The class given is physicochemical. The note with it: read-out: Half-time (t0.5) of the conversion to allopurinol, pH 7.4 buffer (converted). The protocol: (§1) In-vitro cleavage of allopurinol derivatives
(§2) Solutions of various derivatives of allopurinol in aqueous buffer solutions or 80% human plasma solutions (pH 7.4) were kept at 37° C. The initial concentration of the derivatives was in the range 0.01-0.1 mg/ml. At various times an aliquot of the solutions was withdrawn and analyzed by HPLC for remaining derivative as well as for allopurinol. For the plasma solutions the aliquot withdrawn was deproteinized with ethanol or trichloroacetic acid and after centrifugation, the clear supernatant was injected on HPLC.
(§3) An HPLC method was used for the determination of allopurinol and its derivatives. In this method a reversed-phase LiChrosorb RP-8 column (250×4 mm) was eluated at ambient temperature with mixtures of methanol and 0.01M acetate buffer pH 4.5 or methanol and 0.03M phosphate buffer pH 7.0. The composition of the eluant was adjusted for each compound in order to provide an appropriate retention time. The flow rate was 1.2 ml/min and the column effluent was monitored spectrophotometrically at 252 nm or 274 nm. Quantitation of the compounds was done by measurement of peak heights.
(§4) The half-times of allopurinol formation from various derivatives at physiological conditions of pH and temperature are given in Table 2. It can be seen that in the presence of human plasma the rate of degradation is strongly accelerated, thus showing the susceptibility of the derivatives to undergo conversion into the parent active compound at conditions simiar to those prevailing in vivo.

Data set [2] can be described thus: In-vitro cleavage of allopurinol derivatives to allopurinol in 80% human plasma (pH 7.4) at 37° C. The class given is in vitro ADME. The note with it: 80% plasma, pH 7.4, 37° C, read-out: Half-time (t0.5) of the conversion to allopurinol, 80% human plasma (converted). The protocol: as §1, §2, §3, §4
A short description of the next data set: physchem. The note with it: for solubility: water. The protocol:
(§5) The water-solubility and lipophilicity of the allopurinol drugs
(§6) The apparent partition coefficients (P) for some allopurinol derivatives and allopurinol were measured using the widely used 1-octanol-water system. Similarly, the solubility of the derivatives in water or aqueous buffer solutions was determined.

The test system of a further data set is healthy human volunteer. The data set is described as follows: Rectal micro-enema in a healthy human volunteer, urinary excretion. The data set is classed as in vivo. The note with it: 100 mg allopurinol equivalents. As for the experimental part:
The dose given (2 ml of a 0.5% methylcellulose solution containing 118 mg/ml of the prodrug) corresponded to 100 mg of allopurinol. Urine was collected over 5 days and aliquots were assayed for allopurinol and oxipurinol by a specific HPLC assay.

The test system of data set [3] is rabbits. Description: Intravenous administration to four rabbits, plasma levels. The class given is in vivo, rabbit. The note with it: i.v., 25 mg allopurinol equivalents.
For data set [4] the following is noted: Between octanol and water. The protocol: as §5, §6
A short description of data set [5]: Comparative absorption study following peroral administration, urinary excretion. The note with it: urine, po, human, dose corresponding to 100 mg allopurinol, read-out: total urinary excretion of allopurinol and oxipurinol. The class given is in vivo. The protocol:
A comparative absorption study was also made of allopurinol and the above mentioned prodrug following peroral administration. […] The total urinary excretion of allopurinol and oxipurinol was measured and found to correspond to 67% of the dose given for the allopurinol tablet and 92% for the preparation containing the prodrug derivative.

The conditions of data set [6]: cited from earlier work.
For data set [7] the following is noted: intravenous (Breithaupt & Tittel, 1982); cited from earlier work.
The test system of data set [8] is man. The note with it: rectal, various suppository preparations; cited from earlier work.
Data set [9] concerns man. The note with it: cited from earlier work.
Data set [10] can be described thus: Bioavailability following rectal administration to rabbits (suppositories, micro-enemas). The note with it: rabbit, in vivo, 25 mg.
Protocol: (§7) The suppositories or micro-enemas were administered to rabbits. After drug administration, blood samples were taken at various times and the plasma fraction assayed for allopurinol and its major metabolite oxipurinol using the HPLC method described above.
Data set [11] has as its system rabbits. The description is as above. The note with it: rabbits, rectal suppositories, 25 mg allopurinol equivalents, all three blood sampling times.
Protocol: as §7
For data set [12] the following is noted: in vivo; cited from earlier work.

Molecules are shown by their SMILES. In brackets after ≈: the same amount, converted by molar mass. Structures can show the parent of a compound that is named as a salt. A value given as a limit tells only on which side of the number the result lay.

Usually solubility stands for the dissolved amount per volume that the medium holds. For the molecule `CCN(CC)CC(=O)OCn1ncc2c(=O)[nH]cnc21`, the half-life in data set [1] is 49 min. Moreover, the half-life in data set [2] was 10 min. Further, in “physchem”, the “aqueous solubility relative to the parent compound (factor)” value is given as 5,000 and the solubility was more than 500000 µg/mL. Moreover, the “bioavailability of the parent drug from the prodrug given rectally” value in the data set with healthy human volunteer is “virtually complete bioavailability”. Further, the “bioavailability of the parent drug from the prodrug given intravenously” value with rabbits [3] is “almost complete bioavailability”.
Usually log P stands for the decadic logarithm of the partition coefficient of the neutral form, usually between octanol and water. Higher therefore signals higher lipophilicity. `Oc1ncnc2[nH]ncc12` [Allopurinol, allopurinol]: the solubility in the data set “physchem” amounted to 500 µg/mL (≈ 3.67 mM). In [4], the log partition coefficient (log P) is -0.55. For the same molecule, the “plasma levels of allopurinol after intravenous administration” value with rabbits [3] (all blood sampling times) was “below 1 μg/ml”. The dose excreted in [5] was 67%. In [6] (25° C), the solubility in water entry was “about 0.5 mg/ml”. For the same molecule, in [7], the “dose recovered in the urine as intact allopurinol” value is 12% and the “dose recovered in the urine, total” value is “about 88%”. Besides, the “amount absorbed from suppository preparations administered rectally” value with man [8] is on record as less than 5%. In addition, the “absolute systemic bioavailability of oral tablets” value in the data set with man [9] (man, oral tablets (Appelbaum et al., 1982)) is recorded as “about 70%”. Also, the “oral dose excreted in the stool unchanged” value in the data set with man [9] (oral dose (Elion et al., 1966)) is given as 20-25%. Moreover, the Fa in data set [10] is less than 2%. Besides, the “plasma levels of allopurinol after rectal administration” value in the data set on rabbits [11] is recorded as “below 1 μg/ml”.
As for `Oc1ncnc2[nH]ncc12` [sodium salt of allopurinol], the “pH of infusion fluids” value in [6] (sodium salt of allopurinol at 0.5-1%) is 10.5-11.5. For the same molecule, the “adverse effects of administration of infusion fluids” value in [12] is on record as “may cause thrombophlebitis or perivascular inflammation”.
